| Compound | melting point [°C] |
| --- | --- |
| CN(C)c1ccc(C(=CC=CC2N(C)c3ccccc3C2(C)C)c2ccc(N(C)C)cc2)cc1 (stereo unspecified) | 182 to 183 |
| Fc1cccc(Nc2cc(-c3ccnc(NC4CCOCC4)n3)ccn2)c1 | 190 to 192 |
| CC(=O)Nc1cccc(-c2cc3nc(-c4cccnc4N)n(-c4cccc(-c5cc(C)nc6ccc(NC(C)=O)cc56)c4)c3nc2-c2cccnc2)c1 | 176 to 178 |
| CCCN1CCC(c2ccccc2)=C(C(=O)NCc2ccccc2)C1 | 96 to 98 |
| Cc1noc(NS(=O)(=O)c2cccc3cccnc23)c1Br | 169 to 171 |
| CC1CC(N)=NN1c1ccccn1 (stereo unspecified) | 154 to 157 |
| CCCON=C(C(=O)OCC)c1csc(N)n1 | 142 to 144 |
| COC(=O)c1ccc(C#CC(O)c2ccc3c(c2)C(C)(C)CCC3(C)C)cc1O (stereo unspecified) | 92 to 93 |
| COc1cccc(NC(=O)c2sccc2S(=O)(=O)Nc2onc(C)c2Br)c1 | 200 to 202 |
| CSC(=S)N(C)N=Cc1ccco1 | 103 |
| COC(=O)c1ccc(S(C)(=O)=O)c(-c2cc(C(C)C)no2)c1 | 102 to 104 |
| CN1CCC(OC(c2cccc(C#CCCCN)c2)c2nc3ccccc3[nH]2)CC1 (stereo unspecified) | 82 |
| O=C(NCc1ccc(Cl)cc1)c1n[nH]c2ncc(I)cc2c1=O | > 300 |
| OC(CCc1cccnc1)COc1ccc(C=Cc2ccccc2)cc1 (stereo unspecified) | 110 to 111 |
| N#Cc1cc(F)c(NN=CC(=O)C(F)(F)F)nc1Cl | 174 to 176 |
| COc1cc(N)c(Cl)cc1C(=O)NC1CCN(CC2CCN(C(N)=O)CC2)CC1 | 222 to 224 |
| CCCCCCCCCc1cc(C=CC(=O)N2CCN(c3ccc(NC(=N)c4cccs4)cc3)CC2)cc(CCCCCCCCC)c1O | 103 to 105 |
| O=C1CCCN1C(=O)Oc1ccccc1 | 120 to 122 |
| CCCc1cc(=O)on1C(=O)c1ccc(Cl)cc1Cl | 63 to 65.5 |
| CC(C)c1ccc(C2C(=O)Oc3ccc(Br)cc32)cc1 (stereo unspecified) | 157 to 158 |
| CC(C)(C)c1cc(O)n[nH]1 | 205 to 206 |
| CC(=O)OC1CSC(Oc2cccc(-c3nccs3)c2)C(OC(C)=O)C1OC(C)=O (stereo unspecified) | 65 |
| O=C(O)CCCCCCCn1cc(-c2ccccc2)c(-c2ccccc2)n1 | 108 to 110 |
| O=C(CCl)N1CC=C(c2cccc(C(F)(F)F)c2)n2ncc(Cl)c21 | 116 to 119 |
| CC(=O)Nc1ccc(C=O)c(F)c1F | 154 |
| NS(=O)(=O)c1cc(NC(=O)c2cnn3c(C(F)F)cc(-c4ccc(C(F)(F)F)cc4)nc23)c(Cl)s1 | 298 |

| Compound | melting point [°C] |
| --- | --- |
| CCn1c(C(C)NS(=O)(=O)c2ccc(Cl)c(Cl)c2)cnc1Oc1ccc(Cl)cc1 (stereo unspecified) | 153 to 157 |
| COc1cc(C)c2c(c1C)C(SC)C(=O)N2 (stereo unspecified) | 226 to 227 |
| COc1cc(OC)cc(N2CCN(C(=O)Nc3cc(C(C)OC(=O)CCC(=O)O)c(C)nc3OC)CC2)c1 (stereo unspecified) | 158 to 160 |
| Nc1c(Br)cc(Nc2ncnc3cnc(N4CCC(N)CC4)nc23)cc1Br | 204 to 206 |
| Cc1ccc(-n2cc(-c3cccn4nc(Nc5ccc(C6CCNCC6)cc5)nc34)cn2)cc1 | 216 to 218 |
| COC(=O)c1c(N)cc(Cl)cc1[N+](=O)[O-] | 114 to 116 |
| Cc1nc2c([N+](=O)[O-])cc(Br)cc2n1COCc1ccccc1 | 106 to 109 |
| CC(C)OC(=O)C=Cc1cc(-n2c(=O)cc(C(F)(F)F)n(C)c2=O)c(F)cc1Cl | 137 to 139 |
| CCOC1CCC2(CC1)NC(=O)C(c1cc(Br)ccc1C)=C2O (stereo unspecified) | 138 |
| CCOC(=O)Cc1sc(Sc2cccc(C(F)(F)F)n2)nc1C | 56 to 57 |
| NC(=O)c1ccc(C(F)(F)F)c(N)c1 | 147 to 149 |
| COCc1cc(Oc2c(Cl)cc(C(F)(F)F)cc2Cl)n[nH]1 | 141 to 143 |
| CC(=O)OC1C=CC2(C)C(=CCC3C2CCC2(C)C(C(C)CCCC(C)C)CCC32)C1 (stereo unspecified) | 73 to 75 |
| CN(C)C(=O)COC(=O)c1cc(S(N)(=O)=O)c(Cl)cc1NCc1ccco1 | 193 to 194 |
| Cc1c(C)c(Cl)c2[nH]c(Cl)nc2c1Cl | 280 to 285 |
| C=CCOC(=O)Nc1sc(-c2cccc(Cl)c2)cc1C(=O)OC | 149 to 150 |
| CCN(CC)C(=O)Oc1cc(-c2ccccc2)nc2ccc([N+](=O)[O-])cc12 | 40 |
| O=C1C(CCO)Oc2cc(F)ccc2N1Cc1ccccc1[N+](=O)[O-] (stereo unspecified) | 123 to 124 |
| CC1(C)OC(C=Cc2ccncc2)=CC1=O | 94 to 96 |
| O=C1CC(c2cccc3ccccc23)c2ccc(O)cc2O1 (stereo unspecified) | 193 to 196 |
| O=[N+]([O-])c1ccc2c(c1)N=Cc1ccccc1O2 | 179 to 181 |
| Cc1cc(C)cc(C(=O)N2CCN(C(=O)CNC3CCN(CCCc4ccccc4)CC3)C(c3ccc(Cl)c(Cl)c3)C2)c1 (racemic) | 52 to 54 |
| Cc1cc(C)cc(S(=O)(=O)c2c(C(C)C)nc(C)n2C)c1 | 126 to 128 |
| Cc1c(CC(=O)NOCc2ccccc2)c2cc(OCc3nc4ccccc4s3)ccc2n1Cc1ccc(Cl)cc1 | 183 to 186 |
| C[C@@H](Nc1nnc(-c2ccccc2)c2ccccc12)C1CCCCC1 | 164 to 167 |
| CS(=O)(=O)c1ccc2nc(NC(=N)N)nc(-c3ccccc3)c2c1 | 180 to 185 |

| Compound | melting point [°C] |
| --- | --- |
| CC(C)C[C@H](NC(=O)c1ccco1)C(=O)N[C@@H](C(C)C)[C@@H](O)c1c(-c2ccccc2)c1=O | 101 to 105 |
| COc1ccc(C(=O)Cc2ccccc2)c(Cl)c1Cl | 125 to 127 |
| CC1(C)OC(=S)Nc2ccc(-c3cccc(CC#N)n3)cc21 | 215 to 217 |
| CCOC(=O)CC(=O)NCc1ccccc1 | 50 to 52 |
| COc1cc(CCCOS(C)(=O)=O)ccc1OCc1coc(/C=C/c2ccccc2)n1 | 130 to 131 |
| NC(=O)c1cc(-c2ccc3nnn(Cc4ccc5ncccc5c4)c3n2)ccc1F | 262 to 264 |
| C#CCOc1nnc(Cl)c2ccccc12 | 134 to 136 |
| Cc1c(Nc2ncc(Br)cc2C(=O)O)cccc1C(F)(F)F | 222 to 224 |
| CCOC(=O)c1cn(Cc2ccc(OCc3nc(-c4ccccc4)oc3C)cc2)nc1-c1cccs1 | 113 to 114 |
| O=C(O)[C@@H]1C[C@@H](O)CN1CCO | 202 to 204 |
| ClC1(NC2(Cc3ccncc3)NN=Cc3ccncc32)C=CC=CC1 (stereo unspecified) | 220 to 221 |
| O=C(c1ccccc1)N1CCC(c2nn(-c3ccccc3)c3cc(F)ccc23)CC1 | 149 to 151 |
| CC1CC(=O)c2ccc(C(C)C(=O)O)cc2C1 (stereo unspecified) | 196 to 199 |
| COc1cc2c(cc1OC)NC1=C(C2)C(=O)N(C)CN1 | 225 to 230 |
| CCCC(=O)c1c(CC)nc2c(-c3ccc(Cl)cc3Cl)nccn12 | 159 to 160 |
| C=CCN(CC=C)Cc1csc(-c2ncn3c2[C@@H]2CCCN2C(=O)c2c(Cl)cccc2-3)n1 | 186 to 187 |
| O=c1oc(-c2ccccc2)cc(O)c1SCCOc1ccccc1 | 146 to 149 |
| CSC(SC)(SC)C(O)c1ccc(-n2cccc2)cc1 (stereo unspecified) | 101 to 103 |
| O=C(O)CCCCCCCCCCCCCCCCCCCN1C(=O)C=CC1=O | 104 to 106 |
| Nc1ccc2ncnc(Nc3ccc(Oc4ccccc4)cc3)c2c1 | 89 to 90 |
| CCOC(=O)c1nc2c(=O)[nH]c3ccc(-n4ccnc4)cc3n2c1C | > 250 |
| CC(O)(C(=O)Nc1ccc(S(=O)(=O)N2CCCCC2)cc1)C(F)(F)F (stereo unspecified) | 164 to 166 |
| COc1ccc(C(=O)CBr)c2c1OCCO2 | 67 |
| Cc1c(C(=O)Nc2ccc(-c3ccc(S(=O)(=O)NC(C(=O)O)C(C)C)cc3)cc2)oc2ccccc12 (stereo unspecified) | 264 to 266 |
| COc1ccccc1CN1CCN(CCCOc2ccc3c(C)cc(=O)[nH]c3c2)CC1 | 151 to 152 |
| CCN1CCC2(c3cccc(OC)c3)Cc3[nH]c(C(=O)Nc4ccccc4)c(C)c3CC2C1 (stereo unspecified) | 178 to 180 |

| Compound | melting point [°C] |
| --- | --- |
| Oc1cnc2c(O)cccc2c1 | 139 to 141 |
| CCOC(=O)C(=O)c1cn(Cc2ccccc2)c2cc(-c3ccc(C(F)(F)F)cc3)ccc12 | 109 to 110 |
| CCCCn1cc(C(=O)O)c2ccccc21 | 124 to 126 |
| C[C@H](CO)NN1c2[nH]c(=O)cnc2C=NC1SCc1cccc(C(F)(F)F)c1F (stereo partly specified) | 217 to 219 |
| Nc1c(Br)cc(C2=NNC(=O)Cc3cc4c(cc32)OCO4)cc1Br | 162 to 165 |
| O=C(O)c1ccccc1N1CCN(CC(O)COc2cccc3[nH]ccc23)CC1 (stereo unspecified) | 163 to 165 |
| O=C(O)c1cc([N+](=O)[O-])ccc1Sc1cccc(Br)c1 | 202 to 206 |
| N#CCCCSc1nccc(N)n1 | 99 to 100 |
| COc1ccc(Cn2cc3nc(Nc4ccc(C(F)(F)F)cc4Cl)nc(OCc4ccccc4)c3n2)cc1 | 189 to 192 |
| CSC(N)=Nc1nncs1 | 116 to 117 |
| COC(=O)CCC#Cc1ccc(O)c(CCC(=O)OC)n1 | 119 to 121 |
| O=Cc1c(-c2ccc(F)cc2)n(CCF)c(=O)c2ccccc12 | 132 to 134 |
| CC(C)(C)[Si](C)(C)Oc1cc(Cl)cc(C(O)(C#CC2CC2)C(F)(F)F)c1N (stereo unspecified) | 125 to 126 |
| N=C(N)COc1cccc(Cl)c1Cl | 104 to 108 |
| Cc1nc2ccc(C)c(Sc3ccncc3)c2c(=O)[nH]1 | 235 to 238 |
| CCCSC1=NSc2ccccc2N1Cc1ccc(-c2ccccc2C(=O)O)cc1 | 75 to 85 |
| Cc1cc(C)cc(S(=O)(=O)n2c(CCCC(=O)O)cc3nc(Cl)ccc32)c1 | 200 |
| O=Cc1c[nH]c2c1ccc1c3cc(Br)ccc3[nH]c12 | > 250 |
| COc1cc2nc(-c3n[nH]cc3NC(=O)C3CC3)[nH]c2cc1Cl | 225 to 226 |
| C[C@H]1C(=O)Nc2ccc(Cl)cc2N1C(=O)Oc1ccc(F)cc1 | 168 to 170 |
| CC(C)S(=O)(=O)c1cc(OCc2ccccc2F)c2[nH]nc(Nc3nccs3)c2c1 | 268 to 269 |
| CC(C)CC1CCCCc2c1oc(=O)c(C(c1ccccc1)C1CC1)c2O (stereo unspecified) | 164 to 167 |
| CC(=O)OC1CSC(O)C(OC(C)=O)C1OC(C)=O (stereo unspecified) | 115 |

Reference: a melting point compilation (Tetko et al.; mined from patent text by program, amines drawn as free bases though some values may be those of a salt)
